The test system of test [1] is bone marrow cells induced to differentiate into osteoclasts. Nature of the test: Osteoclast differentiation of bone marrow cells with RANKL and M-CSF (TRAP+ osteoclasts). Format: cell-based, mice. As for the experimental part:
(§1) A.) Bone marrow cells from WT and radiation chimeric netrin^−/− bone marrow mice were isolated and induced to differentiate into osteoclasts by incubation with RANKL and M-CSF. […] Cells from 5 different mice repeated in duplicate. […] A2A receptor stimulation reduces Unc5b, but not DCC, expression. Representative of 2 experiments. C. Bone mineral density (BMD) determined by Pixamouse small animal Dexa scanner. WT mice and Netrin1 KO mice are chimeras generated by infusion of either normal or netrin-1 deficient fetal liver into lethally irradiated congenic C57Black/6 mice. BMD was measured 18 weeks after transplant. Shown are the results of determinations on 5 mice in each group. […] Representative of 5 different mice with each treatment. E. Soft tissue from patients stained for semaphorin 4D (original magnification 800×). On the left is soft tissue obtained at the time of hip replacement (Representative of 14). […] On the right is tissue obtained at time of prosthesis revision (representative of 12).
Consistent with this observation it was shown that radiation chimeras with netrin-1^−/− replacement bone marrow have increased bone mineral density, as measured by Dexa scan (FIG. 4). […]

The subject of test [2] is wear particle-induced osteolysis. Kind of test: New bone formation at sites of wear particle-induced osteolysis (Xenolight Rediject Bone Probe 680, IVIS). It is filed as in vivo, mice. Conditions: daily injections of CGS21680 into air pouch over calvarium. As for the experimental part:
Mice (C57B1/6) underwent formation of an air pouch over the calvarium and then exposed to saline (sham) or wear particles […] followed by daily injections of 200 μl of saline or CGS21680, as previously described. Animals were injected with Xenolight Rediject Bone Probe 680 (2 nmoles in 150 ul) followed by scanning in the IVIS apparatus. The intensity of staining is indicated by increasing yellow coloration. The fluorescence is detectable without change for 3-4 days and persists for as long as 2 weeks although all of these scans were taken on the day of injection. Shown are representative scans of ⅕ animals per group. The intensity of fluorescence was quantitated in a specific area of interest using software provided with the apparatus and the mean (±SEM) was calculated for 5 animals in each. In these experiments osteolysis will be monitored as porosity of the calvaria, measured by microCT, as has been previously described (Mediero, et al., Sci Transl Med, 2012. 4(135): 135-65). […] In addition, sema4D, netrin-1, GM-CSF, M-CSF, IP-10, MCP-1, IL-1, TNF, IL-6, IL-10, osteoprotegerin, osteocalcin and RANKL in supernates of cultured calvaria will be quantified by luminex assay, as has been previously described (Mediero, et al., Sci Transl Med, 2012. 4(135): 135-65). […]

A further test has as its system Unc5b. Nature of the test: Western blot of Unc5b in RAW264.7 cells differentiating to osteoclasts. Format: cell-based, murine. As to conditions: CGS21680 1 μM. The procedure:
as §1

The test system of test [3] is RANKL. Nature of the test: RANKL staining of calvarium in murine model of wear particle-induced osteolysis. It is filed as in vivo, mice. As to conditions: wear particles 4 weeks; saline containing CGS21680 1 μM. As for the experimental part:
(§2) A. Shown are representative sections (from 10 different mice) of mouse calvarium after formation of an air pouch alone (sham) or after formation of an air pouch and exposure to wear particles for 4 weeks in the presence of saline or saline containing CGS21680 (1 μM), as we have previously described (Mediero, et al., Sci Transl Med, 2012. 4(135): 135-65). Dark brown staining is positive. B. RNA was isolated from normal human osteoblasts (Alizarin Red+/Alkaline Phosphatase+ cells) after differentiation from normal marrow cells in the presence or absence of CGS21680 (1 μM). Real time RT-PCR was carried out for RANKL and normalized to GAPDH. Shown are mean (+/−SD) results of two different samples carried out in duplicate.

In another test the test system is sema4D-expressing cells. Nature of the test: Sema4D staining of calvarium in murine model of wear particle-induced osteolysis. It is filed as in vivo. Conditions: wear particle-treated mice; immunostaining. As for the experimental part:
A.) Total cell lysates from primary murine bone marrow cells alone (basal) or after osteoclast differentiation in the presence of saline, CGS21680 (1 μM) with/without ZM241385 (1 μM) were subject to Western Blot detection of sema4D. Shown is a representative experiment of 3. B.) RAW264.7 osteoclasts, infected with a lentiviral vector expressing either shRNA for the catalytic subunit of PKA, scrambled shRNA, or primary murine bone marrow cells were cultured in the presence of saline (Black line) or CGS21680 (1 μM, Red Line) with/without ZM241385 (1 μM, Blue Line) for the time periods indicated before harvest of the cells, collection of RNA and real time RTPCR. Results represent the means (±SEM) of 5 separate determinations. C. Calvarium from sham or wear particle-treated wild type (C57B1/6) mice or adenosine A2A receptor knockout mice (C57B1/6 background) were stained for sema4D. D. Soft tissue from patients stained for semaphorin 4D (original magnification 800×). On the left is soft tissue obtained at the time of joint replacement (Representative of 14). On the right is tissue obtained at time of prosthesis revision (representative of 12). […] In this model ultra high molecular weight polyethylene particles (UHMWPE) are injected into an air pouch overlying the calvaria and the area of bone resorption is measured. […]

Test [4] has as its system netrin-1. Kind of test: Netrin-1 expression in inflammatory infiltrate in wear particle-induced osteolysis. It is filed as in vivo. Conditions: wear particle-induced osteolysis in mice. As for the experimental part:
as §1
Staining for netrin-1 was carried out in collaboration with Dr. Kathryn Moore's laboratory, an internationally known expert on the role of this protein in macrophage function in atherosclerosis (van Gils, et al., Nat Immunol, 2012, 13(2): 136-43). […]

The subject of another test is RANK. Kind of test: RANK staining of calvarium in murine model of wear particle-induced osteolysis. Format: in vivo, mice. As to conditions: wear particles 4 weeks; saline containing CGS21680 1 μM. The procedure: as §2
Test [5] deals with netrin-1. Kind of test: Western blot of netrin-1 in supernate of RAW264.7 cells differentiating to osteoclasts. Format: cell-based, murine. As to conditions: CGS21680 1 μM, RANKL and M-CSF. As for the experimental part: as §1
In test [6] the test system is RANKL. Nature of the test: RANKL real time RT-PCR in normal human osteoblasts differentiated from marrow cells. It is filed as cell-based. As to conditions: CGS21680 1 μM; normalized to GAPDH. The procedure: as §2
In a further test the test system is NFκB p50/p105. Kind of test: NFκB p50/p105 nuclear translocation in RAW264.7 cells with RANKL (Western blot). Conditions: CGS21680 1 μM; 30 min with RANKL; PKA-ERK1/2 mechanism. Format: cell-based, murine. As for the experimental part:
RAW264.7 cells were infected with lentiviral constructs expressing shRNA for the catalytic subunit of PKA or a scrambled control. Cells were incubated for 30 min in the presence of RANKL alone, plus CGS21680 (1 μM, CGS) or plus CGS and ZM241385 (1 μM, C+Z) before lysis, separation of nuclear and cytosolic fractions and analysis by Western Blot. Shown are representative Western Blots. Results in the bar graphs are expressed as the means of four independent experiments analyzed densitometrically and normalized to actin. Results were analyzed by two way ANOVA and Bonferroni post-hoc testing.

For a further test, the system named is osteoprotegerin. Kind of test: Osteoprotegerin staining of calvarium in murine model of wear particle-induced osteolysis. It is filed as in vivo, mice. Conditions: wear particles 4 weeks; saline containing CGS21680 1 μM. The procedure: as §2
A further test has as its system semaphorin 4D. Nature of the test: Sema4D expression (Western blot, real time RT-PCR) in osteoclasts from primary murine bone marrow cells and RAW264.7 cells. Format: cell-based. Conditions: CGS21680 1 μM; protein kinase A-dependent. As for the experimental part:
A.) Total cell lysates from primary murine bone marrow cells alone (basal) or after osteoclast differentiation in the presence of saline, CGS21680 (1 μM) with/without ZM241385 (1 μM) were subject to Western Blot detection of sema4D. Shown is a representative experiment of 3. B.) RAW264.7 osteoclasts, infected with a lentiviral vector expressing either shRNA for the catalytic subunit of PKA, scrambled shRNA, or primary murine bone marrow cells were cultured in the presence of saline (Black line) or CGS21680 (1 μM, Red Line) with/without ZM241385 (1 μM, Blue Line) for the time periods indicated before harvest of the cells, collection of RNA and real time RTPCR. Results represent the means (±SEM) of 5 separate determinations. C. Calvarium from sham or wear particle-treated wild type (C57B1/6) mice or adenosine A2A receptor knockout mice (C57B1/6 background) were stained for sema4D. D. Soft tissue from patients stained for semaphorin 4D (original magnification 800×). On the left is soft tissue obtained at the time of joint replacement (Representative of 14). On the right is tissue obtained at time of prosthesis revision (representative of 12).

Each structure is given as a SMILES string. Entries after “also recorded” stand apart in the source; their conditions may differ.

Take `CCNC(=O)[C@H]1O[C@@H](n2cnc3c(N)nc(NCCc4ccc(CCC(=O)O)cc4)nc32)[C@H](O)[C@@H]1O` [CGS21680]: in test [1] (CGS21680 1 μM, RANKL and M-CSF, WT bone marrow cells), the “osteoclast differentiation in WT cells” value is given as “reduces osteoclast differentiation”. Besides, the “new bone formation at sites of wear particle-induced osteolysis” value in [2] is “restored”. In addition, the Unc5b expression entry with Unc5b is given as “reduces Unc5b”. Besides, the “RANKL expression in calvarium” value with RANKL [3] is on record as “diminishes RANK, RANKL”. For the same compound, the “number of sema4D-expressing cells in the calvaria” value in the test with sema4D-expressing cells is given as “dramatically decreased; also recorded: diminishes recruitment of semaphorin 4D positive cells”. Besides, the “netrin-1 expression in the inflammatory infiltrate” value with netrin-1 [4] is “inhibits its expression”. The “RANK expression in calvarium” value with RANK is listed as “diminishes RANK”. In the test with netrin-1 [5], the “netrin-1 in the supernate of RAW264.7 cells” value is on record as “reduces netrin-1”. Moreover, the “RANKL mRNA in differentiating osteoblasts” value in the test with RANKL [6] is recorded as “diminishes RANKL mRNA”. The “NFκB p50/p105 nuclear translocation” value in the test on NFκB p50/p105 is listed as “inhibits”. Moreover, in the test with osteoprotegerin, the “osteoprotegerin expression in calvarium” value was “increases osteoprotegerin expression”. In addition, the “semaphorin 4D expression by osteoclasts” value with semaphorin 4D is “inhibits”.

Take `Nc1nc(NCCc2ccc(O)cc2)nc2nc(-c3ccco3)nn12` [ZM241385]: in [1] (WT cells with CGS21680 1 μM, netrin-1 250 ng/ml), the “reversal of the A2A receptor agonist (CGS21680) reduction of osteoclast differentiation” value is on record as “reversed”.

The values are drawn from patent publication US9381245B2, “Methods for inhibiting osteolysis” (New York University, priority 2012, dated 2016).
